Reference: patent US20250171431A1, “HETEROCYCLIC INHIBITORS OF IGF-1R FOR TREATMENT OF DISEASE” (HORIZON THERAPEUTICS IRELAND DAC, priority 2023, published 2025)

Legend:
[1] = biological target: T1, IGF-1R (Homo sapiens (Human), UniProt P08069); experiment: Example B-1: IGF-1R Assay (PC3 cells, IGF1 stimulation, AlphaLISA); assay type: cell-based; conditions: 200 ng/mL IGF1 stimulation, read-out: Biological Activity against IGF-1R IC50
How it was run: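 Readout is AlphaLISA signal from lysed PC3 cells, expressed as % inhibition versus vehicle and EC80 controls and banded by IC50. Before lysis, the cells were starved of serum for 2 h, exposed to 3× serially diluted compound for 2 h, and stimulated for 30 min with 200 ng/mL IGF1 (final).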
Target sequence in this assay (P08069 31-1367): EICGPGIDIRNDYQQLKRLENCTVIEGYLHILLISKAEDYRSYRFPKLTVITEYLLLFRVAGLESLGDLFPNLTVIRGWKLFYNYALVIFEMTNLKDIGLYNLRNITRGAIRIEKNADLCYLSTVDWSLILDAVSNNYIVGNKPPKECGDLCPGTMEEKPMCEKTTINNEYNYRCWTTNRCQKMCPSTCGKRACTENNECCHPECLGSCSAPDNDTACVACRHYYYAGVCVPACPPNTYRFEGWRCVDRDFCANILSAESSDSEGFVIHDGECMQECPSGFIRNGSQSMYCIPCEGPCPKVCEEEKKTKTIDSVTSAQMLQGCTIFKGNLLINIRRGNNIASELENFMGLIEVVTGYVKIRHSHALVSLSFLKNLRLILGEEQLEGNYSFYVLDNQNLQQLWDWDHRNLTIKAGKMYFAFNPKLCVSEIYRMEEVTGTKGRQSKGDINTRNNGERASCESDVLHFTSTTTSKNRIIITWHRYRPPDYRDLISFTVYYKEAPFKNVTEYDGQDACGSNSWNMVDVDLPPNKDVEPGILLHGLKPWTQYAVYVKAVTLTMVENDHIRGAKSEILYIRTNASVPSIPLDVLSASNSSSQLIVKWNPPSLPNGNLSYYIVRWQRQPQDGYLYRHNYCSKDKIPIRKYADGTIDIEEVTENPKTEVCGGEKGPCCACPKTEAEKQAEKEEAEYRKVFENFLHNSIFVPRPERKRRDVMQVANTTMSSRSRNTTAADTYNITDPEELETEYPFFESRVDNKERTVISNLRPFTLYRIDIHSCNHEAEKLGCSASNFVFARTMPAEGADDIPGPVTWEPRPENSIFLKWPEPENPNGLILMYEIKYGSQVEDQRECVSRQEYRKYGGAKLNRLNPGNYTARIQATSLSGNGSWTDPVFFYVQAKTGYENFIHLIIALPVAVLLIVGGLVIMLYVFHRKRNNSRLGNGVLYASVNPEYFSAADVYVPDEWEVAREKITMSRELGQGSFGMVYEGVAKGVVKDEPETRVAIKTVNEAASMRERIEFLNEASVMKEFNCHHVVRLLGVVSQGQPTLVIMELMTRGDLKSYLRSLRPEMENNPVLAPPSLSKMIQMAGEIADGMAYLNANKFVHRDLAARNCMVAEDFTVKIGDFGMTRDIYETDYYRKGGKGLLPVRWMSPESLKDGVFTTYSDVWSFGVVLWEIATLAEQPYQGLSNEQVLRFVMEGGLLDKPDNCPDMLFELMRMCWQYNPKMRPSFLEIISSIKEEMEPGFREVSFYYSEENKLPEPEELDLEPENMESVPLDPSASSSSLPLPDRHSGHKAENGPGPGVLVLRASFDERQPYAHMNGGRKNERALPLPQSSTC

[2] = biological target: T1, IGF-1R; experiment: Example B-2: IGF-1R Assay (PathHunter cell lines, EC80 agonist challenge); assay type: cell-based; conditions: read-out: IC50 (Biological Activity against IGF-1R)
How it was run: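 PathHunter cells were pre-incubated with compound for 60 min at 37° C. (1% vehicle), then challenged with EC80 agonist for 3 hours at room temperature. Chemiluminescent detection followed after 1 h. Percent inhibition was calculated relative to EC80 and vehicle controls, and IC50 values were binned into categories.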
Target sequence in this assay (P08069 31-1367, species assumed): as the sequence (P08069 31-1367) above

Molecule `CN(C)CC(=O)N1CCc2ncc(Nc3nccc(Nc4cnc5ccc(Cl)cc5c4)n3)cc21` [Compound 141, 1-(6-((4-((6-chloroquinolin-3-yl)amino)pyrimidin-2-yl)amino)-2,3-dihydro-1H-pyrrolo[3,2-b]pyridin-1-yl)-2-(dimethylamino)ethan-1-one] has an IC50 [1] of at most 500 nM and an IC50 [2] of at most 500 nM.

Molecule `COc1cc(C2CCOCC2)ccc1Nc1nccc(Nc2cc3cccc(F)c3[nH]c2=O)n1` [Compound 220, 8-fluoro-3-{2-[2-methoxy-4-(tetrahydro-2H-pyran-4-yl)phenylamino]-4-pyrimidinylamino}-1,2-dihydro-2-quinolinone] has an IC50 [1] of at most 500 nM and an IC50 [2] of 500 to 2000 nM.

`COc1cc(Nc2nccc(Nc3cnc4ccc(Cl)cc4c3)n2)ccc1OCCCN1CCCCC1` [Compound 196, 4-(6-chloro-3-quinolylamino)-2-[3-methoxy-4-(3-piperidinopropoxy)phenylamino]pyrimidine] was tested, and the IC50 [1] was at most 500 nM and the IC50 [2] was at most 500 nM.

`CN(C)CC1COc2ncc(Nc3nccc(Nc4cnc5ccc(Cl)cc5c4)n3)cc2O1` (centres unmarked) [Compound 500, 4-(6-chloro-3-quinolylamino)-2-{2-[(dimethylamino)methyl]-2,3-dihydro-1,4-dioxa-5-aza-7-naphthylamino}pyrimidine] gave an IC50 [1] of 2000 to 10000 nM and an IC50 [2] of 500 to 2000 nM.

`COc1cc(C2CCN(CC#N)CC2)ccc1Nc1nccc(Nc2cc3cccc(F)c3[nH]c2=O)n1` [Compound 213, (4-{4-[4-(8-fluoro-2-oxo-1,2-dihydro-3-quinolylamino)-2-pyrimidinylamino]-3-methoxyphenyl}-1-piperidyl)acetonitrile] was tested, and the IC50 [1] was at most 500 nM and the IC50 [2] was at most 500 nM.

In the case of `COc1cc(C2CCN(CC#N)CC2)ncc1Nc1nccc(Nc2cc3cccc(F)c3[nH]c2=O)n1` [Compound 211, (4-{5-[4-(8-fluoro-2-oxo-1,2-dihydro-3-quinolylamino)-2-pyrimidinylamino]-4-methoxy-2-pyridyl}-1-piperidyl)acetonitrile], the IC50 [1] is reported as at most 500 nM and the IC50 [2] is reported as at most 500 nM.

`CN(C)CC1COc2cc(Nc3nccc(Nc4cnc5ccccc5c4)n3)ccc2O1` (centres unmarked) [Compound 135, N2-(2-((dimethylamino)methyl)-2,3-dihydrobenzo[b][1,4]dioxin-6-yl)-N4-(quinolin-3-yl)pyrimidine-2,4-diamine] was tested, and the IC50 [1] was at most 500 nM and the IC50 [2] was at most 500 nM.

Work on `COc1cc(Nc2nccc(Nc3cnc4ccccc4c3)n2)ccc1O[C@H]1CC[C@H](N(C)C)CC1` [Compound 17, 2-{3-methoxy-4-[(1r,4r)-4-(dimethylamino)cyclohexyloxy]phenylamino}-4-(3-quinolylamino)pyrimidine] yielded an IC50 [1] of at most 500 nM and an IC50 [2] of at most 500 nM.

Molecule `COc1cc(Nc2nccc(Nc3cc4cccc(F)c4[nH]c3=O)n2)cnc1C1CCNCC1` [Compound 223, 8-fluoro-3-{2-[5-methoxy-6-(4-piperidyl)-3-pyridylamino]-4-pyrimidinylamino}-1,2-dihydro-2-quinolinone] has an IC50 [1] of at most 500 nM and an IC50 [2] of 500 to 2000 nM.

`COc1cc(Nc2nccc(Nc3cnc4ccc(C(F)F)cc4c3)n2)ccc1O[C@H]1C[C@H](N(C)C)C1` [Compound 162, 4-[6-(difluoromethyl)-3-quinolylamino]-2-{3-methoxy-4-[(1r,3r)-3-(dimethylamino)cyclobutoxy]phenylamino}pyrimidine] was tested, and the IC50 [1] was at most 500 nM and the IC50 [2] was 500 to 2000 nM.
